Where “and” joins values, the source holds several entries; their conditions need not be identical. Equal entries are not always repeated.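 Protocol summary: plate cells (96-well), add compound at 5 concentrations, incubate 48 h, interpolate endpoints linearly. Here, GI50 denotes the concentration required for 50% inhibition of growth. TGI marks complete inhibition of growth.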

Experimental findings from PubChem BioAssay (NCI) are described below.

This assay relates to MDA-MB-468 breast. Description: NCI-60 cell line screen, 48 h.
As for `O=C(NO)c1ccc(Cn2c(=O)n(-c3ccccc3F)c(=O)c3ccccc32)cc1`, the GI50 is 1.18 µM and the TGI came out at 3.21 µM.
For `CCc1ccc2c(c1)N(CCO)C1=C(C(=O)OC1)C2c1cccc(Cl)c1` (configuration not stated), in that order: 0.239 µM and 0.861 µM.
In the case of `Cc1ccc(-c2nc(N3CCCNCC3)c3oc(-c4ccccc4)nc3n2)cc1`, the GI50 was 1.55 µM and the TGI is 3.24 µM.
For `COc1ccc(-c2c(-c3cc(OC)c(OC)c(OC)c3)noc2N)cc1` the same measures were < 0.0143 µM and 1.1 µM.
For `COc1cc(-c2nn(-c3cccc(NC(=O)c4ccc(N5CCOCC5)c(C(F)(F)F)c4)c3)cc2-c2ccncc2)ccc1Cl` the same measures were 0.183 µM and 0.781 µM.
For `O=C(/C(=C/c1ccc([N+](=O)[O-])cc1)SCc1ccc(F)cc1)c1ccc(Cl)cc1`, in that order: 9.46 µM and 38.7 µM.
Consider `O=C1OC(c2ccccc2)(c2cc(Br)c(O)c(Br)c2)c2ccccc21` (configuration not stated), for which the GI50 is 27 µM and the TGI is 90.9 µM.
For `COc1cccc2c1c(C1=C(c3cn(C)c4ccccc34)C(=O)NC1=O)cn2C` the same measures were > 25 µM and > 25 µM.
For `c1ccc(CN=C(NCc2ccccc2)NCc2ccccc2)cc1`, in that order: 2.29 µM and 5.38 µM.
For `CCCCCCc1nc2nc(Cl)c(Cl)nc2[nH]1`, in that order: 2.9 µM and > 100 µM.
Consider `COc1ccc(-c2nc(N3CCN(C(=O)C4CCCCC4)CC3)c3c4c(sc3n2)CCCC4)cc1`, for which the GI50 was 29.1 µM and the TGI is > 100 µM.
`CCS(=O)(=O)Nc1cccc(Nc2c3cccc(C)c3nc3c(C)cccc23)c1OC`: the GI50 was 2.24 µM and the TGI came out at 25.5 µM.
For `Cc1nc2cnc(N)c(C#Cc3cncc(C(=O)Nc4ccc(Cl)c(C(F)(F)F)c4)c3)c2nc1C`, in that order: 2.87 µM and 11.6 µM.
In the case of `C=CN(C)S(C)(=O)=O`, the GI50 was > 100 µM and the TGI was > 100 µM.
On to `COC(=O)[C@H](Cc1ccc(O)cc1)NC(=O)[C@@H](OC)[C@@H]1Cc2cc3cc(OC4CC(OC5CC(O)C(O)C(C)O5)C(O)C(C)O4)c(C)c(O)c3c(O)c2C(=O)[C@H]1OC1CC(OC2CC(OC3CC(C)(O)C(O)C(C)O3)C(O)C(C)O2)C(O)C(C)O1` (some centres not stated), for which the GI50 is 0.0672 µM and the TGI was 0.839 µM.
For `COc1cc(OC)c(NC(=O)c2cc3ccccc3cc2O)cc1Cl`, in that order: 3.12 µM and 8.24 µM.
Turning to `O=C(Nc1nc2ccc(F)cc2s1)c1cccnc1Nc1ccc(Cl)cc1`, the GI50 was 1.61 µM and the TGI was > 100 µM.
Regarding `CN1CC(CNC(=O)OCc2ccccc2)CC2c3cccc4c3c(cn4C)CC21` (configuration not stated), the GI50 was 1.61 µM and the TGI worked out at 3.12 µM.
For `CN(C)CCCNC(=O)c1cncnc1Nc1ccc(OCc2cccc(F)c2)c(Cl)c1` the same measures were 1.55 µM and 3.02 µM.
As for `COc1cc(-c2ncn(/C=C\C(=O)OC(C)C)n2)cc(C(F)(F)F)c1`, the GI50 was 0.126 µM and 0.141 µM; the TGI was 0.67 µM and 1.24 µM.
With `O=S(=O)(Nc1cc(Cl)ccc1Cl)c1ccc(-c2cnc(C3CC3)o2)cc1`, the GI50 is 0.821 µM and the TGI came to 30.1 µM.
With `C[C@H]1[C@H]2[C@H]3CC[C@@H]4[C@@]5(C)C/C(=C/c6cccnc6)C(=O)C(C)(C)[C@@H]5CC[C@@]4(C)[C@]3(C)CC[C@]23CO[C@]1(C)[C@@H](C(=O)/C=C\c1cccnc1)C3`, the GI50 was 0.864 µM and the TGI was determined as 2.39 µM.
Take `Cc1cc(O)cc(C)c1/C=C/c1cncc(-c2nn[nH]n2)c1`: the GI50 is > 25 µM and the TGI was > 25 µM.
For the compound `CNC(=O)Oc1cc(C)c(/C=C/c2cncc(C(=O)NC)c2)c(C)c1`, the GI50 was 11 µM and the TGI is > 25 µM.
For `CC1=C([Te]c2ccc(O)cc2)C(=O)c2ccccc2C1=O`, in that order: 0.697 µM and 2.17 µM.
`Cc1cc(Oc2ccc3nc(COc4ccc(CC5SC(=O)NC5=O)cc4)n(C)c3c2)cc(C)c1N` (configuration not stated): the GI50 is 25.9 µM and the TGI is > 93.6 µM.
For the compound `CCc1cc2c(cc1N1CCC(N3CCOCC3)CC1)C(C)(C)c1[nH]c3cc(C#N)ccc3c1C2=O`, the GI50 is 1.8 µM and 2.05 µM and 2.14 µM; the TGI is 5.25 µM and 5.67 µM and 7.85 µM.
As for `COc1cnc2c(c1)C(=O)c1c-2n(CCCNC(C)C)c(=O)c2cc(F)ccc12`, the GI50 is 0.226 µM and the TGI came to 0.702 µM.
Consider `CCN(CC)CCCC(C)N=c1cc(Nc2cc(=NC(C)CCCN(CC)CC)c3cc(OC)ccc3o2)oc2ccc(OC)cc12` (configuration not stated), for which the GI50 is 0.543 µM and the TGI is 1.19 µM.
Turning to `CCN(CC)CCNc1cc(-c2cccc(OC(F)(F)F)c2)nc2ccc(N3CCCC3)cc12`, the GI50 was 1.64 µM and 1.84 µM; the TGI was 3.18 µM and 3.61 µM.
With `C/C(=C(\c1ccc(OCCN2CCCCCC2)cc1)c1ccc(OC(=O)Cc2ccccc2)cc1)c1ccc(Cl)cc1`, the GI50 is 1.99 µM and the TGI was 4.38 µM.
For `Nc1c(C(=O)c2ccc(CCCN3CCOCC3)cc2)cnn1-c1ccc(F)cc1`, in that order: 8.19 µM and > 25 µM.
Regarding `O=C(NCc1ccncc1)C12CC3CC(C1)CC(c1ccc(Cl)cc1)(C3)C2`, the GI50 was 6.58 µM and the TGI was 21.1 µM.
For `CCOC(=O)[C@@H](C)C[C@H](Cc1ccccc1)NC(=O)c1csc([C@@H](C[C@H](C(C)C)N(C)C(=O)[C@H](CC)NC(=O)[C@H]2CCCCN2C)OC(C)=O)n1` the same measures were < 0.00167 µM and > 12.6 µM.
Regarding `Cc1ncsc1-c1ccc(CNC(=O)[C@@H]2C[C@@H](O)CN2C(=O)[C@@H](NC(=O)C2(C#N)CC2)C(C)(C)C)cc1`, the GI50 was 54.5 µM and the TGI was > 100 µM.
With `CC/C(=C(/c1ccc(O)cc1)c1ccc(OCCN2CCCCC2)cc1)c1ccc(OC)cc1`, the GI50 was 1.37 µM and the TGI stood at 3.22 µM.
